Consider 13 substances from patent publication US7906480B2, “Use of a parathyroid hormone peptide analogs for the treatment of vaginal atrophy” (priority 2002, dated 2011).

Experiment [1] has as its target T1, PTHPTHrP receptor (Homo sapiens, UniProt Q03431).
T1 sequence (Q03431 27-593): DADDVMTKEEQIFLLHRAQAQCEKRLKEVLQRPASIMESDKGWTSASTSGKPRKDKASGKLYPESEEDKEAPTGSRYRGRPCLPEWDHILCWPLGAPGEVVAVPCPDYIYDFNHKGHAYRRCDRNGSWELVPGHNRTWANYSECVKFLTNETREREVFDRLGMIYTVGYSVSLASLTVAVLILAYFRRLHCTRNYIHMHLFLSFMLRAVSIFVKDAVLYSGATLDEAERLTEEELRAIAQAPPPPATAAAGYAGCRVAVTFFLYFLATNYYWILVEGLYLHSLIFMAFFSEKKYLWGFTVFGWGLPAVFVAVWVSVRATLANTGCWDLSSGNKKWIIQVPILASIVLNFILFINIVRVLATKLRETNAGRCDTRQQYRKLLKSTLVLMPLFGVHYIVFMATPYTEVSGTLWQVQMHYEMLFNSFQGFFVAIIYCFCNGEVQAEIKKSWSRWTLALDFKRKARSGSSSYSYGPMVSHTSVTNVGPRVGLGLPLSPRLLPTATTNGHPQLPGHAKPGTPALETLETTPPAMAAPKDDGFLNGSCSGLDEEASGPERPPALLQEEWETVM
As to conditions: cited from earlier work.

Experiment [2] deals with cultured human keratinocytes. Particulars: in vitro, previously shown in U.S. Pat. Nos. 5,527,772, 5,840,690 and 6,066,618; cited from earlier work.
A further experiment concerns the target hPTH-2 receptor (Homo sapiens, UniProt P49190). Particulars: cited from earlier work.
The next experiment deals with mouse vaginal cells. Briefly: tritiated thymidine incorporation into DNA of cultured mouse vaginal epithelial cells. In kind it is cell-based, SKH-1 hairless mice. On the procedure:
The vaginas from five SKH-1 hairless mice were harvested, washed, and placed in trypsin 1× overnight. From each, the vaginal epithelium was peeled and rinsed in 0.02% EDTA solution and centrifuged to isolate the cells. The cells were rinsed in media, centrifuged, and plated into a 100 mm dish atop a layer of irradiated 3T3 cells containing media as is used for keratinocytes and described above. The cells were grown and passed into 24 well plates for tritiated thymidine incorporation as described above. Cells were treated with either a placebo vehicle or with 1×10^−7 M PTH(1-34) for 24 hours. The cells were harvested and the DNA was extracted and counted using a beta liquid scintillation counter. The amount of tritiated thymidine recovered in the DNA is a measure of DNA synthesis in the cells and is synonymous with cellular proliferative activity.
(Uptake of a labelled nucleoside into DNA is a usual measure of proliferation.)

The target in experiment [3] is T1, PTHPTHrP receptor. As to conditions: cited from earlier work. The source holds these as a separate data set.

“Also recorded” adds a separate entry of the source. Where two headings read alike, the source gives them in different places. No end group written: not given here.

hPTH-2 receptor, sequence (P49190 25-550): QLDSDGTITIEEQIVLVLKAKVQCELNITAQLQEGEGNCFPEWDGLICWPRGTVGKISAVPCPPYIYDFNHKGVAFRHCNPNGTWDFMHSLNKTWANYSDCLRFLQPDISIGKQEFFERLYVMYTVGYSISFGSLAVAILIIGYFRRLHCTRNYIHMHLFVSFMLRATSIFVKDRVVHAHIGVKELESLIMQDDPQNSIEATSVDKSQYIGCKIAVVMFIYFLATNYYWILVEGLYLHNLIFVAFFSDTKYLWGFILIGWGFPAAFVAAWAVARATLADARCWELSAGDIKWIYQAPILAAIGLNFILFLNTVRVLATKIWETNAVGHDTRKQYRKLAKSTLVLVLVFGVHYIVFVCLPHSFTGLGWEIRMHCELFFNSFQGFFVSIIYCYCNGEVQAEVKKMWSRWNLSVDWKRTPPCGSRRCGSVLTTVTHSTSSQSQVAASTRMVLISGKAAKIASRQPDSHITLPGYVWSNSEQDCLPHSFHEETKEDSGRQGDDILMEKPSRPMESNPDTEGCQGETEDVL

“[Leu^11,D-Trp^12]hPTHrP(7-34),Amide [[Leu^11,D-Trp^12]hPTHrP(7-34)NH2]”: the “antagonist function at the hPTH/PTHrP receptor” value with PTHPTHrP receptor [1] is recorded as “highly potent antagonist”. Regarding “[Nle^8,18,Tyr^34]bPTH(7-34),Amide (FXHNLGKHLSSXERVEWLRKKLQDVHNY; norleucine at 8,18; C-terminal amide; Bovine; VARIANT (2)..(12) Xaa = Nle) [[Nle^8,18, Tyr^34]bPTH (7-34)NH2]”, in experiment [2], the “block of inhibition of proliferation or stimulation of differentiation by hPTH(1-34), hPTHrP(1-34), or 1,25(OH)2D3” value was “block the inhibition of proliferation or stimulation of differentiation”.

For the substance “[Trp^23]hPTHrP(1-36) (AVSEHQLLHDKGKSIQDLRRRFWLHHLIAEIHTAEI; listed as Homo sapiens) [[Trp^23]hPTHrP (1-36)]”, the “antagonist function at the PTH-2 receptor” value with hPTH-2 receptor is reported as “hPTH-2 receptor antagonist”; in the experiment with hPTH-2 receptor (listed as [Trp^23]PTHrP(1-36)), “particularly potent antagonist”. Take “[Tyr^34]bPTH(7-34),Amide (FMHNLGKHLSSMERVEWLRKKLQDVHNY-NH2) [[Tyr^34]bPTH (7-34)NH2]”: in experiment [2], the “block of inhibition of proliferation or stimulation of differentiation by hPTH(1-34), hPTHrP(1-34), or 1,25(OH)2D3” value was “block the inhibition of proliferation or stimulation of differentiation”. “bPTHrP(5-36) (HQLLHDKGKSIQDLRRRFFLHHLIAEIHTAEI; listed as Homo sapiens) [printed only in b18]”: the “block of inhibition of proliferation or stimulation of differentiation by hPTH(1-34), hPTHrP(1-34), or 1,25(OH)2D3” value in experiment [2] was “block the inhibition of proliferation or stimulation of differentiation”. For the substance “hPTH(1-34) (SVSEIQLMHNLGKHLNSMERVEWLRKKLQDVHNF; listed as Homo sapiens)”, the “incorporation of tritiated thymidine into the DNA (DNA synthesis)” value in the experiment on mouse vaginal cells (1×10^−7 M for 24 hours, versus placebo vehicle, FIG. 1) is “increased”. The vaginal cell growth entry in the experiment with mouse vaginal cells (conclusion from FIG. 1, mouse vaginal cells in vitro) is “can stimulate vaginal cell growth; also recorded: can stimulate vaginal cell-growth”.

Regarding “hPTH(5-34) (IQLMHNLGKHLNSMERVEWLRKKLQDVHNF; listed as Homo sapiens)”, in experiment [2], the “block of inhibition of proliferation or stimulation of differentiation by hPTH(1-34), hPTHrP(1-34), or 1,25(OH)2D3” value is “block the inhibition of proliferation or stimulation of differentiation”. “hPTH(5-36) (IQLMHNLGKHLNSMERVEWLRKKLQDVHNFVA; listed as Homo sapiens)”: the “block of inhibition of proliferation or stimulation of differentiation by hPTH(1-34), hPTHrP(1-34), or 1,25(OH)2D3” value in experiment [2] was “block the inhibition of proliferation or stimulation of differentiation”. On to “hPTH(7-31) (LMHNLGKHLNSMERVEWLRKKLQDV; listed as Homo sapiens)”, for which the “block of inhibition of proliferation or stimulation of differentiation by hPTH(1-34), hPTHrP(1-34), or 1,25(OH)2D3” value in experiment [2] was “block the inhibition of proliferation or stimulation of differentiation”. Consider “hPTH(15-34) (LNSMERVEWLRKKLQDVHNF; listed as Homo sapiens)”, for which the “block of binding of hPTH(1-34) or hPTHrP(1-34) to the PTHPTHrP receptor” value with PTHPTHrP receptor [3] was “can block the binding”. Consider hPTHrP(5-34), for which the “block of inhibition of proliferation or stimulation of differentiation by hPTH(1-34), hPTHrP(1-34), or 1,25(OH)2D3” value in experiment [2] is “block the inhibition of proliferation or stimulation of differentiation”. Regarding “hPTHrP(7-31) (LLHDKGKSIQDLRRRFFLHHLIAEI; listed as Homo sapiens)”, the “block of inhibition of proliferation or stimulation of differentiation by hPTH(1-34), hPTHrP(1-34), or 1,25(OH)2D3” value in experiment [2] was “block the inhibition of proliferation or stimulation of differentiation”. Turning to “hPTHrP(15-34) (IQDLRRRFFLHHLIAEIHTA; listed as Homo sapiens)”, the “block of binding of hPTH(1-34) or hPTHrP(1-34) to the PTHPTHrP receptor” value in the experiment with PTHPTHrP receptor [3] is on record as “can block the binding”.
